Laboratory results from patent US11945881B2, “Neoantigens expressed in ovarian cancer and their uses” (Janssen Biotech, Inc., priority 2020, dated 2024).

How the values were obtained:
[1] = test system: CD4+ T cells; test: exogenous autologous normal donor restimulation assay, TNFα/IFNγ double positive CD4+ T cells by flow cytometry; type: cell-based, human; settings: donor independent, peptide pool 10 μg/mL, healthy donors; for Fold change (CD4+) vs. DMSO: maximum CD4+ T-cell response (TNFα and IFNγ); for Frequency (TNFα + IFNγ + CD4 T cells): maximum CD4+ T-cell response
Experimental: (§1) The immunogenicity of neoantigens was assessed using the exogenous autologous normal donor restimulation assay. […] The lyophilized peptides were solubilized in 100% DMSO.
(§2) CD1c+ Dendritic Cells (CD1c+DC) isolated from human healthy PBMCs were thawed using media (IMDM (Gibco) supplemented with glutamine, HEPES, 5% human serum (Sigma), and 1× Pen-Strep). DC cells were resuspended in media supplemented with IL-4 (Peprotech, 20 ng/mL) and GM-CSF (Gibco, 20 ng/mL), plated in 6 well microplates, and rested overnight at 37° C. and 5% CO2 incubator. The following day, DC cells were counted and plated in a 96 well round bottom microplate at a concentration of 30,000 viable cells per well. Lyophilized neoantigen peptide pools (15-mer peptides with 8-mer overlapping peptide sequences) were solubilized in 100% DMSO with a stock concentration of 20 mg/mL Neoantigen peptides pools were added to DCs for a final concentration of 10 μg/mL and rested for 2 hours at 37° C. and 5% CO2 incubator. CEF Peptide Pool “Plus” (Cellular Technologies, Ltd.) was utilized as a positive control (each viral peptide at a final concentration of 4 ug/ml) and DMSO at the same final concentration (0.05%) as the experimental peptides was utilized as a negative control. After 2 hours, DC cells were irradiated with 50 gray of ionizing radiation. Autologous CD3+ Pan-T cells isolated from human normal PBMCs were thawed using media. Following irradiation, autologous Pan-T cells were added to the irradiated DCs at 300,000 viable cells per well. Human IL-15 (Peprotech) was added to all wells at final concentration of 10 ng/ml. Plates were incubated at 37° C. and 5% CO2 incubator for a total of 12 days. Media was refreshed every 2-3 days with IL-15 (R&D System, 10 ng/mL final concentration) and IL-2 (R&D systems, 10 IU/mL final concentration).
(§3) On Day 11, cells were re-stimulated with identical experimental peptide pools or controls, at same concentration as peptide stimulation on Day 1. Protein Inhibitor Cocktail (eBioscience) was added to every well and plate was incubated overnight for 14-16 hours at 37° C. and 5% CO2 incubator. On Day 12, cells were stained for surface and intracellular flow cytometry analysis. The cells were washed with PBS and stained with Live/Dead Fixable Aqua Dead Cell stain (Thermo-Fisher). Following the live/dead stain, cells were blocked using Biotin-Fre Fc Receptor Blocker (Accurate Chemical & Scientific Corp). Extracellular cellular flow panel ([…] per well in 50 μL) consisted of CD3 PerCP-Cy5.5 (Biolegend), CD4 BV421 (Biolegend), and CD8 APC-Cy7 (Biolegend). After extracellular staining, cells were fixed and permeabilized using Foxp3/Transcription Factor Staining Buffer Set (eBioscience) and stained for intracellular proteins (1:50 dilution) using TNFα FITC (R&D Systems) and IFNγ BV785 (Biolegend). Cells were washed and resuspended in stain buffer, analyzed, and recorded in a BD Celesta flow cytometer.
(§4) Flow cytometry analysis was conducted on FlowJo v10.6 software. Cells were gated on live, singlet, CD3+, CD4+ and CD8+ T cells. The CD8+ and CD4+ T cells were analyzed for TNFα and IFNγ expression.
(§5) The immunogenicity of neoantigens was first investigated in 9-16 healthy donors.

[2] = test system: CD8+ T cells; test: exogenous autologous normal donor restimulation assay, TNFα/IFNγ double positive CD8+ T cells by flow cytometry; type: cell-based, human; settings: for Fold change (CD8+) vs. DMSO: maximum CD8+ T-cell response (TNFα and IFNγ); for Fold change (CD8+) vs. DMSO / Frequency (TNFα + IFNγ + CD8 T cells): donor independent, peptide pool 10 μg/mL, healthy donors; for Frequency (TNFα + IFNγ + CD8 T cells): maximum CD8+ T-cell response; for Immunogenic (yes/no): positive if CD8+ and/or CD4+ double positive TNFα/IFNγ frequency >=3-fold over DMSO and at least 0.01%
Experimental: as §1, §2, §3, §4, §5

Row | Sequence | Fold change (CD4+) vs. DMSO [1] [fold] | Frequency (TNFα + IFNγ + CD4 T cells) [1] [%] | Fold change (CD8+) vs. DMSO [2] [fold] | Frequency (TNFα + IFNγ + CD8 T cells) [2] [%] | Immunogenic (yes/no) [2]
1 | QTDFAYDSGKRLGWGRVACDQVFS [AS3, neoantigen, alternative splicing of ETV4] | 7.31 | 0.1 | 133.13 | 0.43 | Yes
2 | QTQEETDRDRGSWSCAVA [AS64, neoantigen, alternative splicing of IQGAP3] | 5.43 | 0.024 | 33.44 | 0.21 | Yes
3 | RASCGAQKACDVNQLTSS [FUS17, neoantigen, gene fusion C20orf204->TCEA2] | 6.91 | 0.045 | 13.53 | 0.23 | Yes
4 | RGGRGAQENSLD [FUS10, neoantigen, gene fusion SCNN1A->TNFRSF1A] | 20.13 | 0.072 | 896.55 | 19.5 | yes
5 | RLDDSGIGNFITSLLNFISKFFCSFMGA [AS99, neoantigen, alternative splicing of FAM221A] | 4 | 0.077 | 160.85 | 1.43 | Yes
6 | RNTLKESSKLKSSFEYWFAGFFSSSSSFFFLSRKFCFVFCLCWVESLGGVS [AS157, neoantigen, alternative splicing of ZIC4] | 5.53 | 0.083 | 51.78 | 0.16 | Yes
7 | RRHGEVQGLLEREKTARGNPSG [AS72, neoantigen, alternative splicing of SMC1B] | 4.15 | 0.036 | 8.6 | 0.23 | Yes
8 | RSSGLTTSSEYSTHVHMPLILHQAEQELLLLINP [AS141, neoantigen, alternative splicing of MUC16] | 6.94 | 0.045 | 3.82 | 0.041 | Yes
9 | RYWTPATSSEYSNL [AS143, neoantigen, alternative splicing of MUC16] | 3.6 | 0.033 | 12.1 | 0.13 | Yes
10 | SGCRLTLLSLSPVSSLGCPVPMP [AS107, neoantigen, alternative splicing of MUC16] | 14.89 | 0.062 | 2351.27 | 16.6 | Yes
11 | SHALNWNKIGRMFRASRV [AS65, neoantigen, alternative splicing of LCN10] | 73.69 | 0.64 | 82.3 | 2.2 | Yes
12 | SISLTDDEAELPLLDL [AS77, neoantigen, alternative splicing of EP400] | 20.73 | 0.18 | 6.59 | 0.12 | Yes
13 | SMMEGVIQLSFKAIVCLLSCLDLLSLFRVVRHLS [AS94, neoantigen, alternative splicing of AFDN] | 62.76 | 0.098 | 1080.99 | 9.61 | Yes
14 | SRRLKLAQGRLRGLERLHSPQPFLQPMLPQGAQGPCKAPGQGQLLGGRREPDPS [AS14, neoantigen, alternative splicing of FOXH1] | 59.26 | 0.12 | 257.47 | 5.6 | Yes
15 | STLNITLSFDSHHGHHPVSVI [FUS6, neoantigen, gene fusion PKHD1L1->EBAG9] | 26.51 | 0.11 | 4.47 | 0.096 | yes
16 | TKKRKQSELQQP [AS95, neoantigen, alternative splicing of DMXL2] | 2.91 | 0.026 | 2.54 | 0.03 | No
17 | TRSLDDLEKLDTLCCKLSVHVT [AS33, neoantigen, alternative splicing of RGS12] | 32.24 | 0.28 | 6958.6 | 43.7 | Yes
18 | VEDEEKKEAGTHFIHLTGTTVSAGVPEEMPATTLRREVF [AS91, neoantigen, alternative splicing of ACIN1] | 36.02 | 0.23 | 46.44 | 0.21 | Yes
19 | VEDEEKKEGSMLVAPTSPPSLEAGTHFIHLTGTTVSAGVPEEMPATTLRREVF [AS93, neoantigen, alternative splicing of ACIN1] | 253.72 | 1.62 | 459.18 | 0.9 | Yes
20 | VEDEEKKEPDGAQRHLVDIGGSHQTSHAEKFLFLLCPPVV [AS90, neoantigen, alternative splicing of ACIN1] | 4.93 | 0.044 | 28.95 | 0.1 | Yes
21 | VIPGDLSEAHGYSFS [AS5, neoantigen, alternative splicing of PLAG1] | 17.14 | 0.18 | 2.41 | 0.017 | Yes
22 | VLRKTAHRSTTARCSCPPWLTCWPRVAAPGALSTVAREASWWLLTTEVV [AS74, neoantigen, alternative splicing of TRPM5] | 17.23 | 0.064 | 1018.49 | 6.6 | Yes
23 | VLTVTSTDQEYLDLSAP [AS44, neoantigen, alternative splicing of FGFR3] | 13.45 | 0.067 | 85.94 | 0.33 | Yes
24 | VQKLKNARSLNLEDQI [AS83, neoantigen, alternative splicing of NUF2] | 71.14 | 0.061 | 10.83 | 0.14 | Yes
